Results: patent US12304890B2, “R-type pyridyloxycarboxylic acid, salt and ester derivative thereof, and preparation method therefor, and herbicidal composition and application thereof” (Qingdao Kingagroot Chemical Compound Co., Ltd., priority 2018, dated 2025)

Tests used:
Type in all cases: in vivo
Echinochloa crusgalli = test: Post-emergence test experiment, Echinochloa crusgalli; details: 1000 g a.i./ha, 3 weeks in greenhouse, fresh weight inhibition
Summary of the method: (§1)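 Weed and crop seeds were sown in soil-filled pots, covered with 0.5-2 cm soil and grown in a greenhouse. Plants were sprayed at the 2-3 leaf stage, 2 weeks after sowing. Compounds were in acetone with tween-80 plus methyl oleate emulsible concentrate synergist (1.5 liters per hectare). Fresh weight inhibition was scored after 3 weeks.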

[1] = system: Monocotyledonous and dicotyledonous weed seeds and main crop seeds; test: Post-emergence test experiment, other weeds and crops (Table 4, 1000 g a.i./ha); details: 3 weeks in greenhouse, fresh weight inhibition
Summary of the method: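 Weed and crop seeds (wheat, corn, rice, soybean, cotton, oilseed, millet, sorghum) sown in soil pots in a greenhouse and sprayed at 2-3 leaf stage, 2 weeks after sowing. Compound in acetone/tween-80 with methyl oleate concentrate (1.5 L/ha) as synergist. Effect recorded as fresh-weight growth inhibition rate.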

Digitaria sanguinalis = test: Post-emergence test experiment, Digitaria sanguinalis; details: 1000 g a.i./ha, 3 weeks in greenhouse, fresh weight inhibition
Summary of the method: as §1

| Compound | Activity level (growth inhibition rate), Echinochloa crusgalli (Echinochloa crusgalli) | Activity level (growth inhibition rate), Abutilon theophrasti Medic. [1] | Activity level (growth inhibition rate), Galium aparine [1] | Activity level (growth inhibition rate), Monochoria Vaginalis [1] | Activity level (growth inhibition rate), Digitaria sanguinalis (Digitaria sanguinalis) |
| --- | --- | --- | --- | --- | --- |
| C[C@@H](Oc1nc(F)c(Cl)c(N)c1Cl)C(=O)SCc1ccncc1 [Compound 2-345] | 5 (Level 5: the growth inhibition rate is greater than 85%) | 5 (Level 5: the growth inhibition rate is greater than 85%) | 5 (Level 5: the growth inhibition rate is greater than 85%) | 5 (Level 5: the growth inhibition rate is greater than 85%) | 5 (Level 5: the growth inhibition rate is greater than 85%) |
| CC(Oc1nc(F)c(Cl)c(N)c1Cl)C(=O)SCc1ccccc1Cl (stereo not shown) [Compound 2-315] | 5 (Level 5: the growth inhibition rate is greater than 85%) | 5 (Level 5: the growth inhibition rate is greater than 85%) | 5 (Level 5: the growth inhibition rate is greater than 85%) | 5 (Level 5: the growth inhibition rate is greater than 85%) | 5 (Level 5: the growth inhibition rate is greater than 85%) |
| CCCCCCCCCOC(=O)[C@@H](C)Oc1nc(F)c(Cl)c(N)c1Cl [Compound 2-175] | 5 (Level 5: the growth inhibition rate is greater than 85%) | 5 (Level 5: the growth inhibition rate is greater than 85%) | 5 (Level 5: the growth inhibition rate is greater than 85%) | 5 (Level 5: the growth inhibition rate is greater than 85%) | 5 (Level 5: the growth inhibition rate is greater than 85%) |
| COC(=O)[C@@H](C)Oc1ncc(Cl)c(N)c1C [Compound 2-28] | 5 (Level 5: the growth inhibition rate is greater than 85%) | 5 (Level 5: the growth inhibition rate is greater than 85%) | 5 (Level 5: the growth inhibition rate is greater than 85%) | 5 (Level 5: the growth inhibition rate is greater than 85%) | 5 (Level 5: the growth inhibition rate is greater than 85%) |
| CCCCC(CC)CSC(=O)[C@@H](C)Oc1nc(F)c(Cl)c(N)c1Cl (stereo partly shown) [Compound 2-158] | 5 (Level 5: the growth inhibition rate is greater than 85%) | 5 (Level 5: the growth inhibition rate is greater than 85%) | 5 (Level 5: the growth inhibition rate is greater than 85%) | 5 (Level 5: the growth inhibition rate is greater than 85%) | 5 (Level 5: the growth inhibition rate is greater than 85%) |
| CCCCCCCSC(=O)[C@@H](C)Oc1nc(F)c(Cl)c(N)c1Cl [Compound 2-122] | 5 (Level 5: the growth inhibition rate is greater than 85%) | 5 (Level 5: the growth inhibition rate is greater than 85%) | 5 (Level 5: the growth inhibition rate is greater than 85%) | 5 (Level 5: the growth inhibition rate is greater than 85%) | 5 (Level 5: the growth inhibition rate is greater than 85%) |
| COC(=O)[C@@H](C)Oc1nc(C)c(Cl)c(N)c1Cl [Compound 2-32] | 5 (Level 5: the growth inhibition rate is greater than 85%) | 5 (Level 5: the growth inhibition rate is greater than 85%) | 5 (Level 5: the growth inhibition rate is greater than 85%) | 5 (Level 5: the growth inhibition rate is greater than 85%) | 5 (Level 5: the growth inhibition rate is greater than 85%) |
| C[C@@H](Oc1nc(F)c(Cl)c(N)c1Cl)C(=O)OCC(F)F [Compound 2-279] | 5 (Level 5: the growth inhibition rate is greater than 85%) | 5 (Level 5: the growth inhibition rate is greater than 85%) | 5 (Level 5: the growth inhibition rate is greater than 85%) | 5 (Level 5: the growth inhibition rate is greater than 85%) | 5 (Level 5: the growth inhibition rate is greater than 85%) |
| CC(Oc1nc(F)c(Cl)c(N)c1Cl)C(=O)OCc1cccc(Cl)c1 (stereo not shown) [Compound 2-316] | 5 (Level 5: the growth inhibition rate is greater than 85%) | 5 (Level 5: the growth inhibition rate is greater than 85%) | 5 (Level 5: the growth inhibition rate is greater than 85%) | 5 (Level 5: the growth inhibition rate is greater than 85%) | 5 (Level 5: the growth inhibition rate is greater than 85%) |
| C[C@@H](Oc1nc(F)c(Cl)c(N)c1Cl)C(=O)SCc1ccc(C(F)(F)F)cc1 [Compound 2-332] | 5 (Level 5: the growth inhibition rate is greater than 85%) | 5 (Level 5: the growth inhibition rate is greater than 85%) | 5 (Level 5: the growth inhibition rate is greater than 85%) | 5 (Level 5: the growth inhibition rate is greater than 85%) | 5 (Level 5: the growth inhibition rate is greater than 85%) |
| COC(=O)OC(C)OC(=O)C(C)Oc1nc(F)c(Cl)c(N)c1Cl (stereo not shown) [Compound 2-296] | 5 (Level 5: the growth inhibition rate is greater than 85%) | 5 (Level 5: the growth inhibition rate is greater than 85%) | 5 (Level 5: the growth inhibition rate is greater than 85%) | 5 (Level 5: the growth inhibition rate is greater than 85%) | 5 (Level 5: the growth inhibition rate is greater than 85%) |
